Experimental data published in patent US7160684B2, “Methods of selecting compounds for modulation of bladder function” (Wyeth, priority 2000, dated 2007).

Legend:
[1] = system: cultured human bladder smooth muscle cells; assay: Current clamp recording of resting membrane potential, human cells; type: cell-based; settings: resting membrane potential −8.0±2.8 mV before retigabine; n=3
Description: (§1) Single cell recordings are performed with a List-Medical EPC-7 patch clamp amplifier (Adams & List Assoc., Westbury, N.Y.). Pipette electrodes had tip resistances of 2–4 MΩ and are filled with the following composition (mM): KCl (126.0), MgCl2.6H2O (4.5), ATP Mg salt (4.0), GTP tris salt (0.3), creatine PO4 (14.0), D-glucose (9.0), EGTA (9.0), HEPES (9.0). The pH is adjusted to 7.4 with KOH. Signals are acquired (3 kHz high frequency cut-off, 12 bit resolution) using a 586-based personal computer.
(§2) Cell resting membrane potential (RMP) is measured in current clamp using the above mentioned instrumentation and pipette solutions. For these experiments nystatin is also added to the pipette solution (100 μg/ml) to allow recording through utilization of the perforated patch technique (Korn, et al, 1991). After stable access is achieved, RMP is recorded for a 5 minute control period followed by 5 minute of drug application (0.3 and 1.0 μM). After this time, various antagonists (linopirdine, XE-991) are added to the perfusate and RMP is recorded for an additional 5 minutes. […]
Rat bladder strips were isolated and prepared as previously described (Wojdan, A., Freeden, C., Woods, M., Oshiro, G., Spinelli, W. et al., J Pharmacol ExpTherap 289:1410–1418 (1999)). […] Message for KCNQ subunits was probed using quantitative rtPCR on an ABI PRISM 7700 Sequence Detection System (TAQMAN). […]

[2] = system: isolated rat bladder smooth muscle cell; assay: Current clamp recording of resting membrane potential, rat cells; type: cell-based; settings: 10 μM retigabine
Excerpt: Rat detrusor cells are isolated in a manner previously described for guinea-pig detrusor (Sheldon J H, Norton N W and Argentieri T M (1997) Inhibition of guinea pig detrusor contraction by NS-1619 is associated with activation of BKCa and inhibition of calcium currents. J Pharmacol Exp Thera 283(3): 1193–1200). Male Sprague-Dawley rats (Charles River, Wilmington, Mass.; 200–400 grams) are euthanized by CO2 inhalation and exsanguination. Their urinary bladders are rapidly removed and placed in 37° C. physiological solution with the following composition (mM): Na glutamate (80.0), NaCl (54.7), KCl (5.0), NaHCO3 (25.0), MgCl2.2H2O (2.5), D-glucose (11.8) and CaCl2 (0.2) gassed with O2—CO2, 95%/5% for a final pH of 7.4. The dome of the bladder is isolated from the trigone region and the mucosa is removed. This tissue is then cut into 2–3 mm wide strips and placed into fresh buffer for 1 hour. Tissues are then transferred into 10 ml of an isolation buffer containing the above composition plus collagenase type VIII (1.0 mg/ml) and pronase (0.25 mg/ml). After 10 minutes the isolation buffer is replaced with fresh isolation buffer for an additional 10 min. The tissue is then washed 3 times in fresh collagenase and pronase free solution and stored at room temperature until studied. Cells for study are prepared by triturating 1–2 pieces of detrusor tissue in 2 ml of fresh isolation buffer for 5 minutes with a polished Pasteur pipette, (tip diameter ˜1.5 mm) attached to a modified Harvard Respirator pump (Harvard Apparatus, Southnatic, Mass.) at a rate of 20×/min. with an approximate volume of 5 ml. Cells are then placed on a microscope stage in a temperature regulated tissue bath at 32.5° C. and continually superfused with PSS.
as §1
as §2, with “After stable access is achieved, RMP is recorded for a 5 minute control period followed by 5 minute of drug application (0.3 and 1.0 μM).” left out

SMILES: CCOC(=O)Nc1ccc(NCc2ccc(F)cc2)cc1N [retigabine, N-[2-amino-4-(4-fluorobenzylamino)-phenyl]carbamic acid ethyl ester]
- hyperpolarization of cells [1]: 11±1.1 mV
- hyperpolarization of the cell ([2]; RMP −40 mV before exposure, single tracing FIG. 3a): approximately 10 mV
- resting membrane potential (RMP) after exposure ([2]; control RMP −29.0±4.5 mV, n=3): −43.0±3.5 mV
